{
  "source": "patent US20060211726A1",
  "about": "“Ascomycin derivatives for combination treatment with tazorotene” (priority 2005, published 2006)",
  "test_system": "psoriasis",
  "assay": "Topical treatment of a person suffering from psoriasis",
  "format": "in vivo",
  "conditions": "0.1% Protopic ointment twice a day plus 0.1% tazarotene (Tazorac) once a day in the same person; compared with 0.1% tazarotene alone once a day or 0.1% tacrilomus alone twice a day",
  "method": "A composition according to one of examples 1-3 is administered topically once a day to person suffering from psoriasis.\nTacrilomus is administered twice a day as 0.1% Protopic® ointment to a person suffering from psoriasis. The same person receives 0.1% tazarotene as Tazorac® ointment once a day.",
  "data": [
    {"compound": "C=CC[C@@H]1/C=C(\\C)C[C@H](C)C[C@H](OC)[C@H]2O[C@@](O)(C(=O)C(=O)N3CCCC[C@H]3C(=O)O[C@H](/C(C)=C/[C@@H]3CC[C@@H](O)[C@H](OC)C3)[C@H](C)[C@@H](O)CC1=O)[C@H](C)C[C@@H]2OC", "note": "[Tacrilomus, tacrolimus]", "values": [
      {"measurement": "Improvement of symptoms (efficacy)", "value": "greater efficacy"},
      {"measurement": "side effects", "value": "fewer side effects"}
    ]}
  ]
}
